According to patent US20180200257A1, “METHODS FOR THE TREATMENT OF INFLAMMATORY DISORDERS” (Galapagos NV, priority 2015, published 2018):

System: subjects with moderately to severely active RA who have an inadequate response to methotrexate (MTX)
Experiment: Study 1 (add-on to MTX) - Alanine Aminotransferase (ALT) levels
Format: in vivo, human
Protocol: Double-blind, placebo-controlled add on study in subjects with moderately to severely active RA who have an inadequate response to methotrexate (MTX) (oral or parenteral).
595 subjects randomized to one of 6 dose regimens of Compound 1 (dosed as [Compound 1:HCl:3H2O]) (3 dose levels administered either once or twice daily) or placebo on top of each subject's stable dose of MTX.
Compound 1 (dosed as [Compound 1:HCl:3H2O]) is dosed for twelve weeks once daily (q.d.) (50 mg, 100 mg or 200 mg) or twice daily (b.i.d.) (25 mg, 50 mg or 100 mg); or placebo.
At Week 12, the subjects on placebo who have not achieved 20% improvement in swollen joint count (SJC66) and tender joint count (TJC68) are re-randomized automatically to receive Compound 1 (dosed as a [Compound 1:HCl:3H2O]) either at 100 mg q.d. or 50 mg b.i.d. doses in a blinded fashion; subjects on 50 mg q.d. who have not achieved 20% improvement in SJC66 and TJC68 will be assigned to 100 mg q.d. and subjects on 25 mg b.i.d. that have not achieved a 20% improvement in SJC66 and TJC68 will be assigned to 50 mg b.i.d. Subjects who switch treatment at week 12 are handled as if they discontinued at week 12 for the purpose of statistical analysis, whereas subjects in the other groups will maintain their randomized treatment until Week 24.
ALT levels determination is available at Quest Diagnostics, Clinical Trials, Quest House, 125-135 Staines Road, Hounslow, Middlesex, TW3 3JB, United Kingdom under Catalogue n#84460.
ALT catalyzes the exchange of the amino group of alanine with the oxogroup of 2-ketoglutarate to form pyruvate and glutamate. In the presence of lactic dehydrogenase, pyruvate reacts with NADH to form NAD+, measured spectrophotometrically. Guidelines for the ALT value have been issued by the association for Clinical Biochemistry and Laboratory Medicine, 130-132 Tooley Street LONDON SE1 2TU, united Kingdom, wherein the ALT value should be below 34 U/l in Female and below 52 U/L in male.

[1] = 12 weeks results, 2 × 100 mg b.i.d., week 1
[2] = 12 weeks results, 2 × 100 mg b.i.d., week 2
[3] = 12 weeks results, 2 × 100 mg b.i.d., week 4
[4] = 12 weeks results, 2 × 100 mg b.i.d., week 8
[5] = 12 weeks results, 2 × 100 mg b.i.d., week 12
[6] = 24 weeks results, continued 25 mg b.i.d., week 1
[7] = 24 weeks results, continued 25 mg b.i.d., week 2
[8] = 24 weeks results, continued 25 mg b.i.d., week 4
[9] = 24 weeks results, continued 25 mg b.i.d., week 8
[10] = 24 weeks results, continued 25 mg b.i.d., week 12
[11] = 24 weeks results, continued 25 mg b.i.d., week 16
[12] = 24 weeks results, continued 25 mg b.i.d., week 20
[13] = 24 weeks results, continued 25 mg b.i.d., week 24
[14] = 24 weeks results, continued 50 mg b.i.d., week 1
[15] = 24 weeks results, continued 50 mg b.i.d., week 2
[16] = 24 weeks results, continued 50 mg b.i.d., week 4
[17] = 24 weeks results, continued 50 mg b.i.d., week 8
[18] = 24 weeks results, continued 50 mg b.i.d., week 12
[19] = 24 weeks results, continued 50 mg b.i.d., week 16
[20] = 24 weeks results, continued 50 mg b.i.d., week 20
[21] = 24 weeks results, continued 50 mg b.i.d., week 24
[22] = 24 weeks results, continued 50 mg q.d., week 1
[23] = 24 weeks results, continued 50 mg q.d., week 2
[24] = 24 weeks results, continued 50 mg q.d., week 4
[25] = 24 weeks results, continued 50 mg q.d., week 8

`O=C(Nc1nc2cccc(-c3ccc(CN4CCS(=O)(=O)CC4)cc3)n2n1)C1CC1` [Compound 1, cyclopropanecarboxylic acid {5-[4-(1,1-dioxo-thiomorpholin-4-ylmethyl)-phenyl]-[1,2,4]triazolo[1,5-a]pyridin-2-yl}-amide] was tested, and the “Study 1 - ALT Mean CFB” value [1] was 1 IU/L, the “Study 1 - ALT Mean percentage CFB” value [1] was 9% and the “Study 1 - ALT Mean CFB” value [2] was 1 IU/L. For the same molecule, the “Study 1 - ALT Mean percentage CFB” value [2] was 10%, the “Study 1 - ALT Mean CFB” value [3] was 1 IU/L and the “Study 1 - ALT Mean percentage CFB” value [3] was 20%. The “Study 1 - ALT Mean CFB” value [4] was 1 IU/L, the “Study 1 - ALT Mean percentage CFB” value [4] was 25% and the “Study 1 - ALT Mean CFB” value [5] was 2 IU/L. The “Study 1 - ALT Mean percentage CFB” value [5] was 26%, the “Study 1 - ALT Mean CFB” value [6] was 0.8 IU/L and the “Study 1 - ALT Mean percentage CFB” value [6] was 8.9%. The “Study 1 - ALT Mean CFB” value [7] was −0.4 IU/L, the “Study 1 - ALT Mean percentage CFB” value [7] was 5.4% and the “Study 1 - ALT Mean CFB” value [8] was 0.3 IU/L. The “Study 1 - ALT Mean percentage CFB” value [8] was 10.9%, the “Study 1 - ALT Mean CFB” value [9] was 1.8 IU/L and the “Study 1 - ALT Mean percentage CFB” value [9] was 18.4%. For the same molecule, the “Study 1 - ALT Mean CFB” value [10] was 2.5 IU/L, the “Study 1 - ALT Mean percentage CFB” value [10] was 28.6% and the “Study 1 - ALT Mean CFB” value [11] was 1.2 IU/L. The “Study 1 - ALT Mean percentage CFB” value [11] was 21.4%, the “Study 1 - ALT Mean CFB” value [12] was 0.0 IU/L and the “Study 1 - ALT Mean percentage CFB” value [12] was 15.2%. The “Study 1 - ALT Mean CFB” value [13] was 1.4 IU/L, the “Study 1 - ALT Mean percentage CFB” value [13] was 25.1% and the “Study 1 - ALT Mean CFB” value [14] was 0.6 IU/L. For the same molecule, the “Study 1 - ALT Mean percentage CFB” value [14] was 8.5%, the “Study 1 - ALT Mean CFB” value [15] was 1.2 IU/L and the “Study 1 - ALT Mean percentage CFB” value [15] was 13.0%. The “Study 1 - ALT Mean CFB” value [16] was 2.5 IU/L, the “Study 1 - ALT Mean percentage CFB” value [16] was 24.2% and the “Study 1 - ALT Mean CFB” value [17] was 2.2 IU/L. The “Study 1 - ALT Mean percentage CFB” value [17] was 20.3%, the “Study 1 - ALT Mean CFB” value [18] was 2.1 IU/L and the “Study 1 - ALT Mean percentage CFB” value [18] was 27.6%. For the same molecule, the “Study 1 - ALT Mean CFB” value [19] was 1.6 IU/L, the “Study 1 - ALT Mean percentage CFB” value [19] was 20.1% and the “Study 1 - ALT Mean CFB” value [20] was 3.0 IU/L. The “Study 1 - ALT Mean percentage CFB” value [20] was 26.2%, the “Study 1 - ALT Mean CFB” value [21] was 1.8 IU/L and the “Study 1 - ALT Mean percentage CFB” value [21] was 18.7%. The “Study 1 - ALT Mean CFB” value [22] was 0.9 IU/L, the “Study 1 - ALT Mean percentage CFB” value [22] was 6.6% and the “Study 1 - ALT Mean CFB” value [23] was −0.7 IU/L. The “Study 1 - ALT Mean percentage CFB” value [23] was 1.4%, the “Study 1 - ALT Mean CFB” value [24] was −0.6 IU/L and the “Study 1 - ALT Mean percentage CFB” value [24] was 4.8%. The “Study 1 - ALT Mean CFB” value [25] was 0.4 IU/L and the “Study 1 - ALT Mean percentage CFB” value [25] was 10.6%.
